Results from patent EP4707280A1, “1,4-CINEOLE DERIVATIVE AND INTERMEDIATE THEREOF, HERBICIDE CONTAINING SAID DERIVATIVE AS ACTIVE INGREDIENT, METHOD FOR USING HERBICIDE, AND METHOD FOR PREPARING AGROCHEMICAL COMPOSITION” (HOKKO CHEMICAL INDUSTRY CO., LTD., priority 2023, dated 2024).

Experiments:
Assay type in all cases: in vivo
[1] = tested on: Echinochloa crus-galli var. formosensis; test: Test Example 1: herbicidal effect test by soil application in paddy rice; details: 120 g active ingredient per 10 ares, applied immediately after sowing, flooded pots, 14 days after application; for pest or weed control at 1200 g/ha: Echinochloa crus-galli, soil, 336 h, read-out: weed inhibition rate
Description: Wagner pots with an area of […] were filled with paddy soil, followed by addition of water and incorporation of chemical fertilizer (N:P:K = 16:16:16), after which puddling was performed. After that, seeds of Echinochloa crus-galli var. formosensis, broad-leaved weeds ([…] Monochoria vaginalis), and Scirpus juncoides were sown at a depth of 0 cm to 1 cm, 30 seeds each. Immediately after sowing, the pots were flooded and a water depth of approximately 3 cm was maintained. Subsequent management was conducted in a glass greenhouse. Immediately thereafter, an emulsifiable concentrate prepared according to Formulation Example 5 using the compound shown below was diluted with water, and a specified amount of the diluted solution was applied by dropper. The amount of the active ingredient to be applied was equivalent to 120 g per 10 ares.

[2] = tested on: Echinochloa crus-galli var. formosensis; test: Test Example 2: herbicidal effect test by application during growth period of paddy rice; details: 120 g per 10 ares, applied seven days after sowing, flooded pots, 14 days after application; for inhibition at 1200 g/ha: Echinochloa crus-galli, read-out: weed inhibition rate
Description: (§1) The present test was conducted in duplicate for each chemical concentration group, and the weed inhibition rate (%) was determined 14 days after chemical application using the following formula (Math. 1). [formula]
Wagner pots with an area of […] were filled with paddy soil, followed by addition of water and incorporation of chemical fertilizer (N:P:K = 16:16:16), after which puddling was performed. After that, seeds of Echinochloa crus-galli var. formosensis, broad-leaved weeds (Monochoria vaginalis), and Scirpus juncoides were sown at a depth of 0 cm to 1 cm, 30 seeds each. Immediately after sowing, the pots were flooded and a water depth of approximately 3 cm was maintained. Subsequent management was conducted in a glass greenhouse. Seven days after sowing, an emulsifiable concentrate prepared according to Formulation Example 5 using the compound shown below was diluted with water, and a specified amount of the diluted solution was applied by dropper. The amount of the active ingredient to be applied was equivalent to 120 g per 10 ares. The test was conducted in duplicate for each chemical concentration group, and the herbicidal effect was evaluated 14 days after chemical application using the same criteria as in Test Example 1.

Digitaria ciliaris [3] = test: Test Example 3: herbicidal effect test by soil application in upland field; details: 120 g per 10 ares, sprayed one day after sowing, 14 days after application; for inhibition at 1200 g/ha: Digitaria ciliaris, read-out: weed inhibition rate
Description: as §1
(§2) Pots with an area of 36 cm^2 were filled with upland soil (alluvial loam), twenty seeds each of weeds of Digitaria ciliaris, Echinochloa crus-galli, Chenopodium album, and Amaranthus viridis were uniformly mixed with the top 1 cm layer of soil and the surface was lightly pressed down. One day after sowing, an emulsifiable concentrate prepared according to Formulation Example 5 using the compound shown below was diluted with water, and the diluted solution was sprayed onto the soil surface at a rate of 100 liters per 10 ares. The amount of the active ingredient to be applied was equivalent to 120 g per 10 ares. Fourteen days after chemical application, the herbicidal effect was evaluated according to the same criteria as in Test Example 1.

Echinochloa crus-galli [4] = test: as above; details: 120 g per 10 ares, sprayed one day after sowing, 14 days after application; for inhibition at 1200 g/ha: Echinochloa crus-galli, read-out: weed inhibition rate
Description: as §1, §2

Digitaria ciliaris [5] = test: Test Example 4: herbicidal effect test by stem and leaf treatment in upland field; details: 120 g per 10 ares, sprayed seven days after sowing, upland soil, 14 days after application; for inhibition at 1200 g/ha: Digitaria ciliaris, read-out: weed inhibition rate
Description: as §1
as §2, with “crus-galli,” for “crus-galli, Chenopodium album,”, “Seven days” for “One day”

Echinochloa crus-galli [6] = test: as above; details: 120 g per 10 ares, sprayed seven days after sowing, upland soil, 14 days after application; for inhibition at 1200 g/ha: Echinochloa crus-galli, read-out: weed inhibition rate

COC(=O)c1ccccc1COC1CC2(C(C)C)OC1(C)CC2Br (stereo not drawn) [1-1376, methyl 2-[(5-bromo-1-methyl-4-isopropyl-7-oxabicyclo[2.2.1]heptan-2-yl)oxymethyl]benzoate]
≥ 80%: pest or weed control at 1200 g/ha [1] | inhibition at 1200 g/ha [2] | inhibition at 1200 g/ha (Digitaria ciliaris [3]) | inhibition at 1200 g/ha (Echinochloa crus-galli [4]) | inhibition at 1200 g/ha (Digitaria ciliaris [5]) | inhibition at 1200 g/ha (Echinochloa crus-galli [6])

CC(C)C12CC(OCc3cccc(F)c3)C(C)(CC1Br)O2 (stereo not drawn) [1-1356, 5-bromo-2-[(3-fluorophenyl)methoxy]-1-methyl-4-isopropyl-7-oxabicyclo[2.2.1]heptane]
≥ 80%: pest or weed control at 1200 g/ha [1] | inhibition at 1200 g/ha [2] | inhibition at 1200 g/ha (Digitaria ciliaris [3]) | inhibition at 1200 g/ha (Echinochloa crus-galli [4]) | inhibition at 1200 g/ha (Digitaria ciliaris [5]) | inhibition at 1200 g/ha (Echinochloa crus-galli [6])

C=CCO[C@@H]1C[C@]2(C(C)C)O[C@@]1(C)C[C@@H]2Br [1-671, (1S,2R,4R,5S)-5-bromo-1-methyl-4-isopropyl-2-prop-2-enoxy-7-oxabicyclo[2.2.1]heptane]
≥ 80%: inhibition at 1200 g/ha (Echinochloa crus-galli [6])

CC(C)[C@@]12C[C@H](OCc3c(F)cccc3Cl)[C@@](C)(C[C@H]1I)O2 [1-1121, (1R,2S,4S,5R)-2-[(2-chloro-6-fluorophenyl)methoxy]-5-iodo-1-methyl-4-isopropyl-7-oxabicyclo[2.2.1]heptane]
≥ 80%: pest or weed control at 1200 g/ha [1] | inhibition at 1200 g/ha [2] | inhibition at 1200 g/ha (Digitaria ciliaris [3]) | inhibition at 1200 g/ha (Echinochloa crus-galli [4]) | inhibition at 1200 g/ha (Digitaria ciliaris [5]) | inhibition at 1200 g/ha (Echinochloa crus-galli [6])

CC(C)C12CC(OCc3cccc4ccccc34)C(C)(CC1Br)O2 (stereo not drawn) [1-1383, 5-bromo-1-methyl-2-(naphthalen-1-ylmethoxy)-4-isopropyl-7-oxabicyclo[2.2.1]heptane]
≥ 80%: pest or weed control at 1200 g/ha [1] | inhibition at 1200 g/ha [2] | inhibition at 1200 g/ha (Digitaria ciliaris [3]) | inhibition at 1200 g/ha (Echinochloa crus-galli [4]) | inhibition at 1200 g/ha (Digitaria ciliaris [5]) | inhibition at 1200 g/ha (Echinochloa crus-galli [6])

COc1ccccc1CO[C@H]1C[C@@]2(C(C)C)O[C@]1(C)C[C@H]2Br [1-1022, (1R,2S,4S,5R)-5-bromo-2-[(2-methoxyphenyl)methoxy]-1-methyl-4-isopropyl-7-oxabicyclo[2.2.1]heptane]
≥ 80%: pest or weed control at 1200 g/ha [1] | inhibition at 1200 g/ha [2] | inhibition at 1200 g/ha (Digitaria ciliaris [3]) | inhibition at 1200 g/ha (Echinochloa crus-galli [4]) | inhibition at 1200 g/ha (Digitaria ciliaris [5]) | inhibition at 1200 g/ha (Echinochloa crus-galli [6])

CC(C)[C@]12C[C@@H](OCc3ccccc3F)[C@](C)(C[C@H]1C)O2 (racemic) [1-1597, (1SR,2RS,4RS,5RS)-2-[(2-fluorophenyl)methoxy]-1,5-dimethyl-4-isopropyl-7-oxabicyclo[2.2.1]heptane]
≥ 80%: pest or weed control at 1200 g/ha [1] | inhibition at 1200 g/ha [2] | inhibition at 1200 g/ha (Digitaria ciliaris [3]) | inhibition at 1200 g/ha (Echinochloa crus-galli [4]) | inhibition at 1200 g/ha (Digitaria ciliaris [5]) | inhibition at 1200 g/ha (Echinochloa crus-galli [6])

CC(C)[C@@]12C[C@H](OCc3c(F)cccc3Br)[C@@](C)(C[C@H]1I)O2 [1-1601, (1R,2S,4S,5R)-2-[(2-bromo-6-fluorophenyl)methoxy]-5-iodo-1-methyl-4-isopropyl-7-oxabicyclo[2.2.1]heptane]
≥ 80%: pest or weed control at 1200 g/ha [1] | inhibition at 1200 g/ha [2] | inhibition at 1200 g/ha (Digitaria ciliaris [3]) | inhibition at 1200 g/ha (Echinochloa crus-galli [4]) | inhibition at 1200 g/ha (Digitaria ciliaris [5]) | inhibition at 1200 g/ha (Echinochloa crus-galli [6])

CC(C)[C@@]12C[C@H](OCc3c(Cl)cccc3Cl)[C@@](C)(C[C@H]1I)O2 [1-1120, (1R,2S,4S,5R)-2-[(2,6-dichlorophenyl)methoxy]-5-iodo-1-methyl-4-isopropyl-7-oxabicyclo[2.2.1]heptane]
≥ 80%: pest or weed control at 1200 g/ha [1] | inhibition at 1200 g/ha [2] | inhibition at 1200 g/ha (Digitaria ciliaris [3]) | inhibition at 1200 g/ha (Echinochloa crus-galli [4]) | inhibition at 1200 g/ha (Digitaria ciliaris [5]) | inhibition at 1200 g/ha (Echinochloa crus-galli [6])

CC(C)[C@@]12C[C@H](OCc3ccccn3)[C@@](C)(C[C@H]1Br)O2 [1-1059, 2-[[(1R,2S,4S,5R)-5-bromo-1-methyl-4-isopropyl-7-oxabicyclo[2.2.1]heptan-2-yl]oxymethyl]pyridine]
≥ 80%: pest or weed control at 1200 g/ha [1] | inhibition at 1200 g/ha [2] | inhibition at 1200 g/ha (Digitaria ciliaris [3]) | inhibition at 1200 g/ha (Echinochloa crus-galli [4]) | inhibition at 1200 g/ha (Digitaria ciliaris [5]) | inhibition at 1200 g/ha (Echinochloa crus-galli [6])

CC(C)[C@@]12C[C@H](OCc3ccccc3F)[C@@](C)(C[C@H]1I)O2 [1-1094, (1R,2S,4S,5R)-2-[(2-fluorophenyl)methoxy]-5-iodo-1-methyl-4-isopropyl-7-oxabicyclo[2.2.1]heptane]
≥ 80%: pest or weed control at 1200 g/ha [1] | inhibition at 1200 g/ha [2] | inhibition at 1200 g/ha (Digitaria ciliaris [3]) | inhibition at 1200 g/ha (Echinochloa crus-galli [4]) | inhibition at 1200 g/ha (Digitaria ciliaris [5]) | inhibition at 1200 g/ha (Echinochloa crus-galli [6])

CC(C)[C@]12C[C@@H](OCc3ccccc3F)[C@](C)(C[C@@H]1OCc1ccccc1)O2 [1-1606, (1S,2R,4R,SS)-2-[(2-fluorophenyl)methoxy]-1-methyl-5-phenylmethoxy-4-isopropyl-7-oxabicyclo[2.2.1]heptane]
≥ 80%: weed inhibition rate [1] | weed inhibition rate [2] | weed inhibition rate (Digitaria ciliaris [3]) | weed inhibition rate (Echinochloa crus-galli [4]) | weed inhibition rate (Digitaria ciliaris [5]) | weed inhibition rate (Echinochloa crus-galli [6])

CC(C)[C@]12C[C@@H](OCc3ccc(Br)cc3)[C@](C)(C[C@@H]1Br)O2 [1-696, (1S,2R,4R,5S)-5-bromo-2-[(4-bromophenyl)methoxy]-1-methyl-4-isopropyl-7-oxabicyclo[2.2.1]heptane]
≥ 80%: pest or weed control at 1200 g/ha [1] | inhibition at 1200 g/ha [2] | inhibition at 1200 g/ha (Digitaria ciliaris [3]) | inhibition at 1200 g/ha (Echinochloa crus-galli [4]) | inhibition at 1200 g/ha (Digitaria ciliaris [5]) | inhibition at 1200 g/ha (Echinochloa crus-galli [6])

C#CCO[C@@H]1C[C@]2(C(C)C)O[C@@]1(C)C[C@@H]2Br [1-673, (1S,2R,4R,5S)-5-bromo-1-methyl-4-isopropyl-2-prop-2-ynoxy-7-oxabicyclo[2.2.1]heptane]
≥ 80%: pest or weed control at 1200 g/ha [1] | inhibition at 1200 g/ha [2]

Cc1ccc(C2C[C@]3(C)O[C@@]2(C(C)C)C[C@H]3OCc2ccccc2F)cc1 (stereo partly drawn) [1-927, (1S,2R,4R)-2-((2-fluorobenzyl)oxy)-4-isopropyl-1-methyl-5-(p-tolyl)-7-oxabicyclo[2.2.1]heptane]
≥ 80%: inhibition at 1200 g/ha (Digitaria ciliaris [3]) | inhibition at 1200 g/ha (Echinochloa crus-galli [4])

COCO[C@@H]1C[C@]2(C(C)C)O[C@@]1(C)C[C@@H]2Br [1-677, (1S,2R,4R,5S)-5-bromo-2-(methoxymethoxy)-1-methyl-4-isopropyl-7-oxabicyclo[2.2.1]heptane]
≥ 80%: inhibition at 1200 g/ha [2]

CC(C)[C@]12C[C@@H](OCc3ccc4ccccc4c3)[C@](C)(C[C@@H]1Br)O2 [1-716, (1S,2R,4R,5S)-5-bromo-1-methyl-2-(naphthalen-2-ylmethoxy)-4-isopropyl-7-oxabicyclo[2.2.1]heptane]
≥ 80%: pest or weed control at 1200 g/ha [1] | inhibition at 1200 g/ha [2]

COc1cccc(CO[C@@H]2C[C@]3(C(C)C)O[C@@]2(C)CC3=O)c1 [2-347, (1R,4S,5R)-1-isopropyl-5-((3-methoxybenzyl)oxy)-4-methyl-7-oxabicyclo[2.2.1]heptan-2-one]
≥ 80%: pest or weed control at 1200 g/ha [1] | inhibition at 1200 g/ha (Echinochloa crus-galli [4])

CCOC1C[C@]2(C)O[C@@]1(C(C)C)C[C@H]2OCc1ccccc1F (mixture of isomers) [1-916, (1S,2R,4R,SR)-5-ethoxy-2-[(2-fluorophenyl)methoxy]-1-methyl-4-isopropyl-7-oxabicyclo[2.2.1]heptane]
≥ 80%: inhibition at 1200 g/ha (Digitaria ciliaris [5]) | inhibition at 1200 g/ha (Echinochloa crus-galli [6])
